According to patent publication US12528790B2, “Amide derivative having antiviral activity” (Shionogi & Co., Ltd., priority 2020, dated 2026):
Like-named read-outs stand apart in the source and are kept apart here.

Key:
[1] = system: RSV A2 strain; test: In vitro CPE (CytoPathic Effect) inhibition effect evaluation test, RSV type A; type: cell-based; conditions: inhibitory effect against RSV type A (RSV A2 strain), HEp-2 cells, CPE inhibition, read-out: EC50
How it was run: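 HEp-2 cells (2.4×10^5 cells/mL, 2% FBS E-MEM) were infected with RSV alongside 3-fold compound dilutions and incubated at 37 °C, 4 days for A2 and 5 days for B Wash/18537. Viable cells quantified by CellTiter-Glo 2.0 luminescence; EC50 by nonlinear regression as 50% CPE inhibition.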

[2] = system: RSV B (Wash/18537 strain); test: In vitro CPE (CytoPathic Effect) inhibition effect evaluation test, RSV type B; type: cell-based; conditions: inhibitory effect against RSV type B, CPE inhibition, read-out: EC50
Procedure: The test sample is diluted in advance to an appropriate concentration with DMSO, and 3-fold series of serial dilutions were prepared on a 384-well plate (0.32 μL/well). HEp-2 cells (CCL-23; ATCC) adjusted at appropriate number (2.4×10^5 cells/mL) in 2% FBS E-MEM (prepared by adding kanamycin and FBS to Eagle's Minimum Essential Medium; Invitrogen) were added at 12.5 μL/well to the 384-well plate previously aliquoted with the test samples. The RSV A2 strain was diluted to an appropriate concentration in a culture medium and added to the 384-well plate containing the test sample at 12.5 μL/well. The culture medium was added additionally to the 384-well plate, and the test was started with 50 μL/well. Control wells were prepared with only virus-free culture medium. The plate was incubated in a 5% CO2 incubator at 37° C. for 4 days, and the plate was then placed at room temperature for 30 minutes. CellTiter-Glo (registered trademark) 2.0 assay (Promega) was added at 15 μL/well, mixed for 30 seconds, and the plate was placed for approximately 1 hour. The luminescent signal was then measured by EnVision (PerkinElmer). The inhibitory effect of the test agents on RSV-induced CPE was calculated as 0% and 100% inhibition rate for each sample concentration based on the level of remaining viable cells by CellTiter-Glo (registered trademark) 2.0, with the EC50 value for each compound calculated by nonlinear regression as the concentration that inhibits RSV-induced CPE by 50%. In the case of evaluation against RSV type B, RSV B (Wash/18537 strain) was infected in the same manner as the type A, cultured for 5 days, and quantitated in the same manner as for the A2 strain.

[3] = human respiratory syncytial virus

Row | SMILES | EC50 [1, 3] [nM] | EC50 [2, 3] [nM] | EC50 [1] [nM] | EC50 [2] [nM]
1 | CC(F)(F)c1nc(-c2cn(C3CCOCC3)c3cc(O[C@H]4CC[C@@H](N5CC(F)(F)C5)CC4)ccc23)ncc1C(=O)NC1(C(=O)O)C2CC3CC(C2)CC1C3 (some centres unmarked) [Compound I-547] | < 10 | < 10 | – | –
2 | COC1(C)CCC(Oc2ccc3c(-c4ncc(C(=O)NC5(C(=O)O)C6CC7CC(C6)CC5C7)c(C(F)(F)F)n4)cn(C4CCC(F)(F)CC4)c3c2)CC1 (centres unmarked) [Compound I-445] | < 10 | < 10 | – | –
3 | O=C(NC1(C(=O)O)C2CC3CC(C2)CC1C3)c1ccc(-c2cn(C3CCOCC3)c3cc(OC4CCN(c5ncccn5)CC4)ccc23)nc1C(F)(F)F (centres unmarked) [Compound I-147] | < 10 | < 10 | – | –
4 | O=C(NC1(C(=O)O)C2CC3CC(C2)CC1C3)c1cnc(N2CC3(CCCCC3)c3cc(OC4CCN(CC5(F)COC5)CC4)ccc32)nc1C(F)(F)F (centres unmarked) [Compound I-484] | < 10 | 10 to 100 | – | –
5 | CC(F)(F)c1nc(N2CC3(CCCC3)c3cc(OC4CCN(CC(F)(F)F)CC4)ccc32)ncc1C(=O)NC1(C(=O)O)C2CC3CC(C2)CC1C3 (centres unmarked) [Compound I-565] | < 10 | < 10 | – | –
6 | O=C(NC1(C(=O)O)C2CC3CC(C2)CC1C3)c1cnc(N2CC3(CCCCC3)c3cc(OC4CN(c5ncc(F)cn5)C4)ccc32)nc1C(F)(F)F (centres unmarked) [Compound I-494] | < 10 | < 10 | – | –
7 | CC(F)(F)c1nc(N2CC3(CCCCC3)c3cc(OC4CCC(N5CCC(F)(F)C5)CC4)ccc32)ncc1C(=O)NC1(C(=O)O)C2CC3CC(C2)CC1C3 (centres unmarked) [Compound I-540] | – | – | < 10 | 10 to 100
8 | CC(F)(F)c1nc(N2CC3(CCOCC3)c3cc(OC4CCC(N5CCC(F)(F)C5)CC4)ccc32)ncc1C(=O)NC1(C(=O)O)C2CC3CC(C2)CC1C3 (centres unmarked) [Compound I-538] | – | – | < 10 | < 10
9 | CC(F)(F)c1nc(N2CC3(CCCCC3)c3cc(C(=O)N4CCC(C(F)F)CC4)ccc32)ncc1C(=O)NC1(C(=O)O)C2CC3CC(C2)CC1C3 (centres unmarked) [Compound I-610] | < 10 | < 10 | – | –
10 | CC(F)(F)c1nc(N2CC3(CCOCC3)c3cc(O[C@H]4CC[C@H](N5CC(F)(F)C5)CC4)ccc32)ncc1C(=O)N[C@]1(C(=O)O)[C@@H]2CC3C[C@H]1C[C@@](F)(C3)C2 [Compound I-554] | < 10 | < 10 | – | –
11 | CC(F)(F)c1nc(N2CC3(CCCCC3)c3cc(OC4CCN(c5ncc(F)cn5)CC4)ncc32)ncc1C(=O)NC1(C(=O)O)C2CC3CC(C2)CC1C3 (centres unmarked) [Compound I-557] | < 10 | < 10 | – | –
12 | O=C(NC1(C(=O)O)C2CC3CC(C2)CC1C3)c1cnc(N2CC3(CCOC3)c3cc(OC4CCN(c5ncccn5)CC4)ccc32)nc1C(F)(F)F (racemic) [Compound I-257] | < 10 | < 10 | – | –
13 | CC(F)(F)c1nc(N2CC3(CCOCC3)c3cc(OC4CCN(c5ncc(F)cn5)CC4)ncc32)ncc1C(=O)NC1(C(=O)O)C2CC3CC(C2)CC1C3 (centres unmarked) [Compound I-503] | < 10 | < 10 | – | –
14 | O=C(NC1(C(=O)O)C2CC3CC(C2)CC1C3)c1cnc(N2CC3(CCC(F)(F)CC3)c3cc(OC4CCN(CC(F)(F)F)CC4)ccc32)nc1C(F)(F)F (centres unmarked) [Compound I-493] | < 10 | < 10 | – | –
15 | O=C(NC1(C(=O)O)C2CC3CC(C2)CC1C3)c1cnc(-c2cn(C3CCC(F)(F)CC3)c3cc(C(=O)N4CCN(CC(F)(F)F)CC4)ccc23)nc1C(F)(F)F (centres unmarked) [Compound I-418] | < 10 | < 10 | – | –
16 | CC(F)(F)c1nc(N2CC3(CCOCC3)c3cc(OC4CN(c5ncc(F)cn5)C4)ccc32)ncc1C(=O)NC1(C(=O)O)C2CC3CC(C2)CC1C3 (centres unmarked) [Compound I-542] | < 10 | < 10 | – | –
17 | CC(F)(F)c1nc(-c2cn(C3CC3)c3cc(O[C@H]4CC[C@H](N5CC(F)(F)C5)CC4)ccc23)ncc1C(=O)NC1(C(=O)O)C2CC3CC(C2)CC1C3 (some centres unmarked) [Compound I-530] | < 10 | < 10 | – | –

Row | SMILES | EC50 [1, 3] [nM] | EC50 [2, 3] [nM] | EC50 [1] [nM] | EC50 [2] [nM]
18 | O=C(NC1(C(=O)O)C2CC3CC(C2)CC1C3)c1cnc(N2CC3(CCCCC3)c3cc(O[C@@H]4CCN(c5ncc(F)cn5)C4)ccc32)nc1C(F)(F)F (some centres unmarked) [Compound I-525] | < 10 | < 10 | – | –
19 | CC(F)(F)c1nc(N2CC3(CCOCC3)c3cc(OC4CCC5(CC4)COC5)ccc32)ncc1C(=O)NC1(C(=O)O)C2CC3CC(C2)CC1C3 (centres unmarked) [Compound I-527] | < 10 | < 10 | – | –
20 | CC(F)(F)c1nc(N2CC3(CCCCC3)c3cc(-n4ncc5c4CCN(CC(F)(F)F)C5)ccc32)ncc1C(=O)NC1(C(=O)O)C2CC3CC(C2)CC1C3 (centres unmarked) [Compound I-607] | < 10 | < 10 | – | –
21 | O=C(NC1(C(=O)O)C2CC3CC(C2)CC1C3)c1cnc(N2CC3(CCOCC3)c3cc(C(=O)N4CCN(c5ncccn5)CC4)ccc32)nc1C(F)(F)F (centres unmarked) [Compound I-353] | – | – | < 10 | < 10
22 | COCCCOc1ccc2c(c1)CCN2c1ncc(C(=O)NC2(C(=O)O)CCCCC2)c(C(F)(F)F)n1 [Compound I-7] | 10 to 100 | 100 to 5000 | – | –
23 | COC[C@@H](C)n1cc(-c2ncc(C(=O)NC3(C(=O)O)C4CC5CC(C4)CC3C5)c(C(C)(F)F)n2)c2ccc(O[C@H]3CC[C@H](N4CC(F)(F)C4)CC3)cc21 (some centres unmarked) [Compound I-569] | < 10 | < 10 | – | –
24 | O=C(NC1(C(=O)O)C2CC3CC(C2)CC1C3)c1cnc(N2CC3(CCCCC3)c3cc(-n4ncc5c4CCN(CC(F)(F)F)C5)ccc32)nc1C(F)(F)F (centres unmarked) [Compound I-606] | < 10 | < 10 | – | –
25 | O=C(NC1(C(=O)O)C2CC3CC(C2)CC1C3)c1cnc(N2CC3(CCCCC3)c3cc(C(=O)N4CCN(CC(F)(F)F)CC4)ccc32)nc1C(F)(F)F (centres unmarked) [Compound I-505] | < 10 | < 10 | – | –
26 | CC(F)(F)c1nc(N2CC3(CCOCC3)c3cc(O[C@H]4CC[C@H](NCC(F)(F)F)CC4)ccc32)ncc1C(=O)NC1(C(=O)O)C2CC3CC(C2)CC1C3 (some centres unmarked) [Compound I-552] | < 10 | < 10 | – | –
27 | CC(F)(F)c1nc(-c2cn(C3CCOCC3)c3cc(OC4CC(N5CC(F)(F)C5)C4)ccc23)ncc1C(=O)NC1(C(=O)O)C2CC3CC(C2)CC1C3 (single isomer, unassigned) [Compound I-621] | < 10 | < 10 | – | –
28 | O=C(NC1(C(=O)O)C2CC3CC(C2)CC1C3)c1ccc(-c2cn(C3CCC(F)(F)CC3)c3cc(O[C@H]4CC[C@H](N5CC(F)(F)C5)CC4)ccc23)nc1C(F)(F)F (some centres unmarked) [Compound I-452] | < 10 | < 10 | – | –
29 | CC(F)(F)c1nc(N2CC3(CCOCC3)c3cc(OC4CCC5(CC4)CN(CC(F)(F)F)C5)ccc32)ncc1C(=O)NC1(C(=O)O)C2CC3CC(C2)CC1C3 (centres unmarked) [Compound I-549] | < 10 | < 10 | – | –
30 | CC(F)(F)c1nc(-c2cn(C3CCC(F)(F)CC3)c3cc(O[C@H]4CC[C@@H](N5CC(F)(F)C5)CC4)ccc23)ncc1C(=O)NC1(C(=O)O)C2CC3CC(C2)CC1C3 (some centres unmarked) [Compound I-546] | < 10 | < 10 | – | –
31 | N#Cc1cc(C(=O)NC2(C(=O)O)C3CC4CC(C3)CC2C4)c(C(F)(F)F)nc1N1CC2(CCOCC2)c2cc(OC3CCN(c4ncccn4)CC3)ccc21 (centres unmarked) [Compound I-276] | < 10 | < 10 | – | –
32 | CC(F)(F)c1nc(N2CC3(CCOCC3)c3cc(OC4CCN(C5CSC5)CC4)ccc32)ncc1C(=O)NC1(C(=O)O)C2CC3CC(C2)CC1C3 (centres unmarked) [Compound I-564] | < 10 | < 10 | – | –
33 | COc1nc(N2CCc3cc(OCCC4CCOCC4)ccc32)nc(C(F)(F)F)c1C(=O)NC1(C(=O)O)C2CC3CC(C2)CC1C3 (centres unmarked) [Compound I-88] | – | – | < 10 | 10 to 100
34 | COc1cnc(N2CCC(Oc3ccc4c(c3)C3(CCCCC3)CN4c3ncc(C(=O)NC4(C(=O)O)C5CC6CC(C5)CC4C6)c(C(F)(F)F)n3)CC2)cn1 (centres unmarked) [Compound I-537] | < 10 | 10 to 100 | – | –
